Laboratory results: patent US20260232767A1, “INTERLEUKIN-23 RECEPTOR ANTAGONIST PEPTIDES FOR USE IN THE TREATMENT OF PSORIASIS” (Janssen Pharmaceutica NV, priority 2023, published 2026)

How the values were obtained:
[1] = system: subjects with moderate-to-severe plaque psoriasis; test: Safety, adverse events, Example 1; details: 16-week study
Protocol: Adverse events were reported and followed by the investigator. Any clinically relevant changes occurring during the study were recorded. Any clinically significant abnormalities persisting at the end of the study/early withdrawal were followed by the investigator until resolution or until a clinically stable condition was reached if possible. The evaluations of safety and tolerability include: physical examinations, vital signs, electrocardiograms, clinical safety laboratory assessments, review of concomitant medication, pregnancy testing, suicidal ideation evaluation via the Columbia—Suicide Severity Rating Scale, and tuberculosis evaluation.
Safety was assessed among all randomized and treated participants who received at least 1 dose of study agent (partial or complete) according to the assigned treatment received during the study. This is also referred to as the safety analysis set.

[2] = system: subjects with moderate-to-severe plaque psoriasis; test: BSA, Example 1; format: in vivo, human; details: each dose group vs placebo; Week 16
From the text: Subjects suitable for the method of the present invention satisfy one or more criteria for inclusion, as described below. In some embodiments, the present invention relates to the method and/or use, where the subject has a psoriasis effected Body Surface Area (BSA) of at least 10% before the start of treatment. Herein the term BSA will mean the measure of the percentage of total area of your body affected by psoriasis.
Clinician-reported outcomes including Psoriasis Area and Severity Index (PASI), Body Surface Area (BSA), Investigator's Global Assessment (IGA), Nail Psoriasis Area and Severity Index (NAPSI), Fingernail Physician's Global Assessment (f-PGA), Static Physician's Global Assessment of Genitalia (s-PGA-G), Physician's Global Assessment of Hands and/or Feet (hf-PGA), and Scalp Specific Investigator Global Assessment (ss-IGA) were obtained at Week 0, 8, and 16. PASI and IGA were also obtained at Weeks 1, 2, 4, and 12, and at Week 20, four weeks after the administration of the tablets has stopped.

IL-17F = test: Serum IL-17F immunoassay; format: in vivo, human; details: all treatment groups relative to placebo
Protocol: To evaluate psoriasis relevant systemic biomarkers (Beta-defensin 2 (BD-2), IL-17A, IL-17F, and IL-22), protein concentrations were measured in serum using validated immunoassays. The IL-17A (Catalog #03-0159-00) and IL-17F (Catalog #03-0164-00) assays used are commercially available SMC™-based high sensitivity immunoassays produced by the EMD Millipore Corporation. The manufacturer's protocols were followed and analyzed on the Erenna® instrument platform except for the use of 11 μL Elution Buffer B. While the IL-22 assay is also based on the SMC™ platform and run on the Erenna instrument, the assay was developed internally as a coated plate-based assay. The development and optimization of the BD-2 assay was done on the Meso Scale Discovery on the electrochemiluminescence-based platform, a division of Meso Scale Diagnostics LLC (MSD). For all assays, concentration adjustments were made to values measuring below empirically defined LLOQ or empirically defined ULOQ values. Assay QC verified performance of generated standard curves (average concentration recovery & CV of technical replicates) and control samples (inter-assay plate agreement (CV)).
Serum levels of psoriasis disease biomarkers BD-2, IL-22, IL-17A, and IL-17F relative to baseline were analyzed in patients who received placebo or the compound of Formula (I) and compared to clinical response. […]

`CC(=O)NCCCC[C@@H]1NC(=O)[C@H](Cc2c[nH]c3c(C)cccc23)NC(=O)[C@H]([C@@H](C)O)NC(=O)[C@H](CC(N)=O)NC(=O)[C@@H](NC(C)=O)C(C)(C)SSC(C)(C)[C@@H](C(=O)N[C@@H](Cc2ccc(OCCN)cc2)C(=O)N[C@@H](Cc2ccc3ccccc3c2)C(=O)NC2(C(=O)N[C@@H](CCC(=O)O)C(=O)N[C@@H](CC(N)=O)C(=O)N[C@@H](Cc3cccnc3)C(=O)N(C)CC(N)=O)CCOCC2)NC1=O` [IL-23 receptor antagonist peptide, Ac-[Pen]*-N-T-[W(7-Me)]-[Lys(Ac)]-[Pen]*-Phe[4-(2-aminoethoxy)]-[2-Nal]-[THP]-E-N-[3-Pal]-Sarc-NH2 (*[Pen]-[Pen]* formdisulfidebond)] was tested, and the “COVID-19, subjects” value ([1]; 25 mg BID) was “(19.5%)”, the “Diarrhea, subjects” value ([1]; 25 mg BID) was “(4.9%)” and the “Discontinued study agent because of adverse events, subjects” value (“Discontinued study agent because” for short) ([1]; 25 mg BID) was “(2.3%)”. The “Gastrointestinal disorders, subjects” value ([1]; 25 mg BID) was “(9.8%)”, the “Headache, subjects” value ([1]; 25 mg BID) was “(2.4%)” and the “Infections and infestations, subjects” value ([1]; 25 mg BID) was “(34.1%)”. The “Nasopharyngitis, subjects” value ([1]; 25 mg BID) was “(7.3%)”, the “Nervous system disorders, subjects” value ([1]; 25 mg BID) was “(4.9%)” and the “Respiratory, thoracic and mediastinal disorders, subjects” value ([1]; 25 mg BID) was 0. The “Subjects with 1 or more Adverse events” value ([1]; 25 mg BID) was “(48.8%)”, the “Upper respiratory tract infection, subjects” value ([1]; 25 mg BID) was 0 and the “COVID-19, subjects” value ([1]; 25 mg QD) was “(11.6%)”. The “Diarrhea, subjects” value ([1]; 25 mg QD) was “(4.7%)”, the “Discontinued study agent because” value ([1]; 25 mg QD) was “(7.0%)” and the “Gastrointestinal disorders, subjects” value ([1]; 25 mg QD) was “(7.0%)”. For the same compound, the “Headache, subjects” value ([1]; 25 mg QD) was 0, the “Infections and infestations, subjects” value ([1]; 25 mg QD) was “(34.9%)” and the “Nasopharyngitis, subjects” value ([1]; 25 mg QD) was “(2.3%)”. The “Nervous system disorders, subjects” value ([1]; 25 mg QD) was 0, the “Respiratory, thoracic and mediastinal disorders, subjects” value ([1]; 25 mg QD) was “(2.3%)” and the “Subjects with 1 or more Adverse events” value ([1]; 25 mg QD) was “(46.5%)”. The “Upper respiratory tract infection, subjects” value ([1]; 25 mg QD) was “(7.0%)”, the “COVID-19, subjects” value ([1]; 50 mg QD) was “(7.0%)” and the “Diarrhea, subjects” value ([1]; 50 mg QD) was “(9.3%)”. For the same compound, the “Discontinued study agent because” value ([1]; 50 mg QD) was “(2.3%)”, the “Gastrointestinal disorders, subjects” value ([1]; 50 mg QD) was “(14.0%)” and the “Headache, subjects” value ([1]; 50 mg QD) was “(2.3%)”. The “Infections and infestations, subjects” value ([1]; 50 mg QD) was “(39.5%)”, the “Nasopharyngitis, subjects” value ([1]; 50 mg QD) was “(18.6%)” and the “Nervous system disorders, subjects” value ([1]; 50 mg QD) was “(7.0%)”. The “Respiratory, thoracic and mediastinal disorders, subjects” value ([1]; 50 mg QD) was “(2.3%)”, the “Subjects with 1 or more Adverse events” value ([1]; 50 mg QD) was “(60.5%)” and the “Upper respiratory tract infection, subjects” value ([1]; 50 mg QD) was 0. The “COVID-19, subjects” value ([1]; 100 mg BID) was “(9.5%)”, the “Diarrhea, subjects” value ([1]; 100 mg BID) was “(2.4%)” and the “Discontinued study agent because” value ([1]; 100 mg BID) was 0. The “Gastrointestinal disorders, subjects” value ([1]; 100 mg BID) was “(16.7%)”, the “Headache, subjects” value ([1]; 100 mg BID) was “(2.4%)” and the “Infections and infestations, subjects” value ([1]; 100 mg BID) was “(26.2%)”. For the same compound, the “Nasopharyngitis, subjects” value ([1]; 100 mg BID) was “(4.8%)”, the “Nervous system disorders, subjects” value ([1]; 100 mg BID) was “(4.8%)” and the “Respiratory, thoracic and mediastinal disorders, subjects” value ([1]; 100 mg BID) was “(4.8%)”. For the same compound, the “Subjects with 1 or more Adverse events” value ([1]; 100 mg BID) was “(61.9%)”, the “Upper respiratory tract infection, subjects” value ([1]; 100 mg BID) was “(4.8%)” and the “COVID-19, subjects” value ([1]; 100 mg QD) was “(7.0%)”. For the same compound, the “Diarrhea, subjects” value ([1]; 100 mg QD) was “(2.3%)”, the “Discontinued study agent because” value ([1]; 100 mg QD) was 0 and the “Gastrointestinal disorders, subjects” value ([1]; 100 mg QD) was “(9.3%)”. For the same compound, the “Headache, subjects” value ([1]; 100 mg QD) was “(7.0%)”, the “Infections and infestations, subjects” value ([1]; 100 mg QD) was “(16.3%)” and the “Nasopharyngitis, subjects” value ([1]; 100 mg QD) was “(2.3%)”. The “Nervous system disorders, subjects” value ([1]; 100 mg QD) was “(7.0%)”, the “Respiratory, thoracic and mediastinal disorders, subjects” value ([1]; 100 mg QD) was “(7.0%)” and the “Subjects with 1 or more Adverse events” value ([1]; 100 mg QD) was “(44.2%)”. For the same compound, the “Upper respiratory tract infection, subjects” value ([1]; 100 mg QD) was 0, the “Deaths, MACE or malignancies” value [1] was “no deaths, MACE or malignancies” and the “COVID-19, subjects” value ([1]; Combined doses) was “(10.8%)”. For the same compound, the “Diarrhea, subjects” value ([1]; Combined doses) was “(4.7%)”, the “Discontinued study agent because” value ([1]; Combined doses) was “(2.3%)” and the “Gastrointestinal disorders, subjects” value ([1]; Combined doses) was “(11.3%)”. The “Headache, subjects” value ([1]; Combined doses) was “(2.8%)”, the “Infections and infestations, subjects” value ([1]; Combined doses) was “(30.2%)” and the “Nasopharyngitis, subjects” value ([1]; Combined doses) was “(7.1%)”. For the same compound, the “Nervous system disorders, subjects” value ([1]; Combined doses) was “(4.7%)”, the “Respiratory, thoracic and mediastinal disorders, subjects” value ([1]; Combined doses) was “(3.3%)” and the “Subjects with 1 or more Adverse events” value ([1]; Combined doses) was “(52.4%)”. For the same compound, the “Upper respiratory tract infection, subjects” value ([1]; Combined doses) was “(2.4%)”, the “Dose dependence of occurrence of AEs” value ([1]; across treatment groups) was “no evidence of dose-dependent increase” and the Tolerability ([1]; all treatment groups) was “well-tolerated”. For the same compound, the “Improvement (reduction) in BSA from baseline” value [2] was “significantly greater improvement” and the IL-17F serum levels (IL-17F) was “Statistically significant reductions”.
